Here are results for 26 compounds from patent US20250230138A1, “COMPOUNDS HAVING A T-STRUCTURE FORMED BY AT LEAST FOUR CYCLES FOR USE IN THE TREATMENT OF CANCER AND OTHER INDICATIONS” (TheRas, Inc., priority 2022, published 2025).

Where two headings read alike, the source gives them in different places.

For assay [1], the target named is Cys242 in human PIK3CA (157-299) (Homo sapiens (Human), UniProt P42336). Put plainly: Covalent modification assay using MALDI-TOF MS. The class given is biochemical. Particulars: 4 h reaction time point. The method, boiled down:
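PIK3CA (157-299) at 3.33 μM or 1 μM in 20 mM HEPES, 150 mM NaCl, 2 mM MgCl2, pH 7.3 was incubated with compound (from 10 mM DMSO stocks) in the dark at room temperature for 15 min, 30 min, 2 h or 4 h. Linear-mode MALDI-TOF peak heights gave percent modification.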

The test system of another assay is pAKT in BT474 cells. Put plainly: Cell-based pAKT HTRF assay in BT474 cells. Conditions: BT474 cells, 4 hr incubation, read-out: pAKT inhibition IC50 in BT474 cells. In a few lines: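 Cells grown in DMEM with 10% FBS were exposed to compounds for 4 hr in 0.25% DMSO, using a 9-point, 3-fold dilution series that starts at 3 μM. Lysates were incubated with d2 and Eu Cryptate antibodies for 4–24 h at room temperature, and HTRF was read at 615 nm emission.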

The mark [2] stands for this setting: 3.33 μM protein target, 1:7.5 protein to compound ratio (compounds 1-852).
[3] abbreviates: 1 μM protein target, 1:5 protein to compound ratio (compounds 853-1279).
The mark [4] stands for this setting: Homo sapiens, BT-474, Compounds 10-999.

Cys242 in human PIK3CA (157-299), sequence (P42336 157-299): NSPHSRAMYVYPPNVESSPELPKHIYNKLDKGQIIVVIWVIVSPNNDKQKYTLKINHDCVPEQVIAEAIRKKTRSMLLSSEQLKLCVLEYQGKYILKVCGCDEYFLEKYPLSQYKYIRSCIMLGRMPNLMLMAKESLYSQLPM

`C=CC(=O)N1Cc2cc(-c3nc(-c4ccc5c(c4)C(=O)NC5)c4ccsc4c3-c3c(F)cc(F)cc3OC)nn2C[C@H]1C` [Compound 837]: the “% of modification” value in assay [1] (setting [2]) is “A (percent of modification of PIK3CA protein ≥75%)”. In addition, the 50% inhibitory concentration (IC50) (in general, the concentration needed to halve the response being measured) with pAKT in BT474 cells (Compounds 10-999) is less than 100 nM.
With `C=CC(=O)N1CCc2ncc(-c3nc(-c4ccc5c(c4)C(O)CC5)c4ccsc4c3-c3c(F)cc(F)cc3OC(C)C)cc2C1` (stereo not shown) [Compound 384], the “% of modification” value in assay [1] (setting [2]) is reported as “A (percent of modification of PIK3CA protein ≥75%)”. In addition, the IC50 in the assay on pAKT in BT474 cells (Compounds 10-999) is less than 100 nM.
As to `C=CC(=O)N1CCn2nc(-c3nc(-c4cnc5c(c4)CN(CCOC)CC5(F)F)c4ccsc4c3-c3c(F)cc(F)cc3OCCOC)cc2C1C` (stereo not shown) [Compound 1242], the “% of modification” value in assay [1] (setting [3]) was “A (percent of modification of PIK3CA protein ≥75%)”. The half-maximal inhibitory concentration (IC50) in the assay on pAKT in BT474 cells (Compounds 1000-1279) was less than 100 nM.
In the case of `C=CC(=O)N1CCc2ncc(-c3nc(-c4ccn(C)n4)c4ccsc4c3-c3c(F)cc(F)cc3OC(C)C)cc2C1` [Compound 404], in assay [1] (setting [2]), the “% of modification” value is “A (percent of modification of PIK3CA protein ≥75%)”. The IC50 with pAKT in BT474 cells (Compounds 10-999) was less than 100 nM.
For `C=CC(=O)N1CCn2nc(-c3nc(-c4cncc(C#N)c4)c4ccsc4c3-c3ccc(F)cc3OC(C)C)cc2C1` [Compound 259], in that order: “A (percent of modification of PIK3CA protein ≥75%)” and less than 100 nM.
As for `C=CC(=O)N1Cc2cc(-c3nc(-c4cnc5c(c4)CN(C)C5=O)c4ccsc4c3-c3c(F)cc(F)cc3OCCOC)nn2C[C@H]1C` [Compound 687], in assay [1] (setting [2]), the “% of modification” value was “A (percent of modification of PIK3CA protein ≥75%)”. Also, in the assay on pAKT in BT474 cells (Compounds 10-999), the IC50 was less than 100 nM.
Take `C=CC(=O)N1CCc2ncc(-c3nc(-c4cccc(C#N)c4)c4ccsc4c3-c3c(F)cc(F)cc3OCCOC)cc2C1` [Compound 380]: in assay [1] (setting [2]), the “% of modification” value was “A (percent of modification of PIK3CA protein ≥75%)”. The IC50 with pAKT in BT474 cells (Compounds 10-999) is less than 100 nM.
For `C=CC(=O)N1Cc2cc(-c3nc(N4CCc5c(cnn5C)C4)c4ccsc4c3-c3c(F)cc(F)cc3OCCOC)nn2CC1C` (stereo not shown) [Compound 949], the “% of modification” value in assay [1] (setting [3]) is “A (percent of modification of PIK3CA protein ≥75%)”. Moreover, the 50% inhibitory concentration (IC50) with pAKT in BT474 cells (Compounds 10-999) was less than 100 nM.
As for `C=CC(=O)N1CCc2nc(-c3nc(-c4cnn(CC(C)(C)O)c4)c4ccsc4c3-c3c(F)cc(F)cc3OC(C)C)sc2C1` [Compound 344], in assay [1] (setting [2]), the “% of modification” value is “A (percent of modification of PIK3CA protein ≥75%)”. The 50% inhibitory concentration (IC50) with pAKT in BT474 cells (Compounds 10-999) was less than 100 nM.
On to `C=CC(=O)N1Cc2cc(-c3nc(-c4ccc5nn(C)cc5c4)c4ccsc4c3-c3c(F)cc(F)cc3OCC(C)(C)O)nn2[C@@H](C)C1` [Compound 881], for which the “% of modification” value in assay [1] (setting [3]) is “A (percent of modification of PIK3CA protein ≥75%)”. In addition, the IC50 with pAKT in BT474 cells (Compounds 10-999) was less than 100 nM.
For the compound `C=C(F)C(=O)N1Cc2cc(-c3nc(-c4ccc5c(c4)CCN(C)C5)c4ccsc4c3-c3c(F)cc(F)cc3OC(C)C)nn2CC1C` (stereo not shown) [Compound 473], in assay [1] (setting [2]), the “% of modification” value is on record as “D (percent of modification <25%)”. Also, the 50% inhibitory concentration (IC50) with pAKT in BT474 cells (Compounds 10-999) is 100 to 1000 nM.
With `C=C(F)C(=O)N1CCn2nc(-c3nc(-c4cnc5c(c4)CN(C)CC5)c4ccsc4c3-c3c(F)cc(F)cc3OC(C)C)nc2C1` [Compound 310], in assay [1] (setting [2]), the “% of modification” value is on record as “A (percent of modification of PIK3CA protein ≥75%)”. The half-inhibitory concentration (IC50) in the assay on pAKT in BT474 cells (Compounds 10-999) is less than 100 nM.
Consider `C=CC(=O)N1CCc2nc(-c3nc(-c4ccc5c(c4)CCNC5=O)c4ccsc4c3-c3ccc(F)cc3OCCOC)sc2C1` [Compound 118, 6-[7-[4-fluoro-2-(2-methoxyethoxy)phenyl]-6-(5-prop-2-enoyl-6,7-dihydro-4H-thiazolo[5,4-c]pyridin-2-yl)thieno[3,2-c]pyridin-4-yl]-3,4-dihydro-2H-isoquinolin-1-one], for which, in assay [1] (setting [2]), the “% of modification” value is “A (percent of modification of PIK3CA protein ≥75%)”. For the same compound, in the assay on pAKT in BT474 cells (setting [4]), the IC50 was less than 100 nM.
For `C=C(F)C(=O)N1CCn2nc(-c3nc(-c4ccc(=O)n(C)c4)c4ccsc4c3-c3ccc(F)cc3OC(C)C)nc2C1` [Compound 267], the “% of modification” value in assay [1] (setting [2]) is “A (percent of modification of PIK3CA protein ≥75%)”. Besides, the concentration for half-maximal inhibition (IC50) in the assay on pAKT in BT474 cells (Compounds 10-999) lay in the range of 100 to 1000 nM.
For `C=C(F)C(=O)N1CCn2nc(-c3nc(-c4cnc5c(c4)CN(C)CC5)c4ccsc4c3-c3c(F)cc(F)cc3OC(C)C)cc2C1` [Compound 340], the “% of modification” value in assay [1] (setting [2]) was “B (50%<percent of modification <75%)”. Besides, in the assay with pAKT in BT474 cells (Compounds 10-999), the IC50 was less than 100 nM.
Regarding `C=CC(=O)N1CCn2nc(-c3nc(-c4cnn(C5CN(C)C5)c4)c4ccsc4c3-c3c(F)cc(F)cc3OCCOC)cc2C1C` (stereo not shown) [Compound 1029], the “% of modification” value in assay [1] (setting [3]) was “A (percent of modification of PIK3CA protein ≥75%)”. Moreover, the concentration for half-maximal inhibition (IC50) in the assay on pAKT in BT474 cells (Compounds 1000-1279) is less than 100 nM.
For the compound `C=CC(=O)N1CCn2nc(-c3nc(-c4ccc(=O)n(C)c4)cnc3-c3ccc(F)cc3OC(C)C)cc2C1` [Compound 273, 5-[5-(4-fluoro-2-isopropoxy-phenyl)-6-(5-prop-2-enoyl-6,7-dihydro-4H-pyrazolo[1,5-a]pyrazin-2-yl)pyrazin-2-yl]-1-methyl-pyridin-2-one], in assay [1] (setting [2]), the “% of modification” value is “C (25%≤percent of modification <50%)”. The half-inhibitory concentration (IC50) in the assay on pAKT in BT474 cells (setting [4]) was more than 3000 nM.
`C=CC(=O)N1CCc2nc(-c3nc(-c4ccc5c(c4)CCNC5)c4ccsc4c3-c3c(F)cc(F)cc3OCC)sc2C1` [Compound 430]: the “% of modification” value in assay [1] (setting [2]) is listed as “A (percent of modification of PIK3CA protein ≥75%)”. The half-maximal inhibitory concentration (IC50) in the assay with pAKT in BT474 cells (Compounds 10-999) lay in the range of 100 to 1000 nM.
Consider `C=CC(=O)N1CCn2nc(-c3nc(-c4ccc5c(c4)CCN(C(C)C)C5)c4ccsc4c3-c3ccc(F)cc3F)cc2C1` [Compound 250], for which the “% of modification” value in assay [1] (setting [2]) was “A (percent of modification of PIK3CA protein ≥75%)”. Further, the IC50 in the assay with pAKT in BT474 cells (Compounds 10-999) is less than 100 nM.
For `C=CC(=O)N1Cc2cc(-c3nc(-c4cnc5c(c4)CNC(=O)C5)c4ccsc4c3-c3c(F)cc(F)cc3OCCOC)nn2[C@@H](C)C1` [Compound 688], in that order: “A (percent of modification of PIK3CA protein ≥75%)” and less than 100 nM.
For `C=CC(=O)N1CCc2nc(-c3nc(-c4cnn(CC(F)F)c4)c4ccsc4c3-c3ccc(F)cc3OCCOC)sc2C1` [Compound 125], in assay [1] (setting [2]), the “% of modification” value is listed as “A (percent of modification of PIK3CA protein ≥75%)”. The 50% inhibitory concentration (IC50) in the assay with pAKT in BT474 cells (Compounds 10-999) was less than 100 nM.
On to `C=CC(=O)N1Cc2cc(-c3nc(-c4ccc5c(c4)CCN(C)C5)c4ccsc4c3-c3c(F)cc(F)cc3OCCO)nn2[C@@H](C)C1` [Compound 483], for which, in assay [1] (setting [2]), the “% of modification” value was “A (percent of modification of PIK3CA protein ≥75%)”. In the assay on pAKT in BT474 cells (Compounds 10-999), the 50% inhibitory concentration (IC50) was less than 100 nM.
On to `C=CC(=O)N1CCn2nc(-c3nc(-c4cnc5c(c4)CN(C(C)C)CC5)c4ccsc4c3-c3c(F)cc(F)cc3OC)cc2[C@H]1C` (single isomer, unassigned) [Compound 1148], for which, in assay [1] (setting [3]), the “% of modification” value was “A (percent of modification of PIK3CA protein ≥75%)”. Moreover, in the assay with pAKT in BT474 cells (Compounds 1000-1279), the concentration for half-maximal inhibition (IC50) is less than 100 nM.
Regarding `C=CC(=O)N1CCn2nc(-c3nc(-c4ccc5c(c4)CCN(C)CC5)c4c(c3-c3c(F)cc(F)cc3OCCOC)CCC4)cc2[C@H]1C` [Compound 1223], the “% of modification” value in assay [1] (setting [3]) is “A (percent of modification of PIK3CA protein ≥75%)”. Further, in the assay with pAKT in BT474 cells (Compounds 1000-1279), the IC50 is less than 100 nM.
`C=CC(=O)N1CCn2nc(-c3nc(-c4cnn([C@@H](CO)CF)c4)c4ccsc4c3-c3ccc(F)cc3OCCOC)cc2C1` [Compound 280]: the “% of modification” value in assay [1] (setting [2]) was “A (percent of modification of PIK3CA protein ≥75%)”. In the assay with pAKT in BT474 cells (Compounds 10-999), the IC50 was less than 100 nM.
As for `C=CC(=O)N1Cc2cc(-c3nc(-c4ccc5c(c4)CN(C)C5=O)c4ccsc4c3-c3c(F)cc(F)cc3OCCO)nn2CC1C` (stereo not shown) [Compound 494], the “% of modification” value in assay [1] (setting [2]) was “A (percent of modification of PIK3CA protein ≥75%)”. Also, in the assay on pAKT in BT474 cells (Compounds 10-999), the IC50 is less than 100 nM.
